PMC12332667, “Role of Structural Modifications in Peptidomimetic Compounds as Potential Antimicrobial Agents against Staphylococcus aureus and Streptococcus pyogenes: Balancing Bioavailability, Safety, and Antimicrobial Activity” (ACS Omega, 2025)
≈ marks a conversion by molar mass, not a printed value. Residues, ends and D or L forms follow the SMILES beside them.

Experiments:
[1] = system: human dermal fibroblast cell line (46BR.1N); assay: XTT cell proliferation assay, fibroblasts; assay type: cell-based
How it was run: (§1)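 Cells at 37 °C, 5% CO2 received peptidomimetics in serum-free HG-DMEM for 48 or 72 h; for 72 h, half the medium was renewed and peptide re-added at 48 h. XTT reagent was then incubated 4 h and absorbance read at 490 nm; Mann–Whitney U test, p ≤ 0.05.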

[2] = system: immortalized human keratinocytes (HaCaT); assay: LDH cytotoxicity test, keratinocytes; assay type: cell-based; details: LDH, 48 h
How it was run: (§2)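 HaCaT keratinocytes and 46BR.1N fibroblasts, 5000 cells per well, grown 24 h, then exposed to peptidomimetics at 50, 100 and 150 μg/mL in serum-free medium for 48 h. LDH release in supernatant read at 450 nm, normalized to untreated (0%) and 1% Triton X-100 (maximal) controls.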

[3] = system: fibroblasts (46BR.1N); assay: LDH cytotoxicity test, fibroblasts; assay type: cell-based; details: LDH, 48 h
How it was run: as §2

[4] = system: P. aeruginosa ATCC 10145; assay: MIC/MBC broth microdilution, P. aeruginosa; assay type: cell-based
How it was run: (§3)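 Broth microdilution per NCCLS in BHI, ~10^5 CFU/mL inoculum, serially diluted peptidomimetics (stock 1024 μg/mL in water with 5–10% ethanol or DMSO), 18 h at 37 °C. MIC: lowest concentration with no obvious growth (≥90% of untreated); MBC: ≤3 colonies, ≥99.9% kill.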

[5] = Stability / presence in human plasma; assay type: in vitro ADME; details: 24 h incubation at 37 °C
Experimental: Blood was drawn from healthy volunteers, and lithium/heparin holding tubes were used to remove the clot by centrifugation. The plasma was aliquoted in sterile conditions and incubated with the desired compounds for 24 h at 37 °C. The samples were prepared under sterile conditions following the previously described protocol. The samples were collected at six time points (0, 1, 2, 3, 6, and 24 h) for determining stability in water solutions, and time points of 0, 10, 20, 30, 40, 50, and 60 min, as well as of 2, 3, 6, and 24 h, for determining stability in human plasma. The analysis was performed by HPLC using a Kromasil C8 column (5 μm, 90 Å, 1.0 mm × 250 mm) monitored by a PDA or ELDS-LT II detector. For quantification, peak areas were compared to a calibration curve calculated by Shimadzu LCsolution Software (Kyoto, Japan). Graphs were prepared in GraphPad Prism (Boston, USA).

[6] = system: S. aureus ATCC 43300; assay: MIC/MBC broth microdilution, S. aureus; assay type: cell-based, Staphylococcus aureus; details: S. aureus
[7] = system: S. intemrdius c.i.; assay: MIC/MBC broth microdilution, S. intermedius; assay type: cell-based, Staphylococcus intermedius; details: H2O
How it was run: as §3

[8] = system: immortalized human HaCaT keratinocytes; assay: XTT cell proliferation assay, keratinocytes; assay type: cell-based
How it was run: as §1

[9] = system: K. pneumoniae ATCC 700603; assay: MIC/MBC broth microdilution, K. pneumoniae; assay type: cell-based
How it was run: as §3

[10] = system: E. faecalis c.i.; assay: MIC/MBC broth microdilution, E. faecalis; assay type: cell-based, Enterococcus faecalis
How it was run: as §3

[11] = system: P. vulgaris ATCC 6896; assay: MIC/MBC broth microdilution, P. vulgaris; assay type: cell-based, Proteus vulgaris
How it was run: as §3

[12] = system: S. cohnii c.i.; assay: MIC/MBC broth microdilution, S. cohnii; assay type: cell-based, Staphylococcus cohnii
How it was run: as §3

[13] = system: S. schleiferi c.i.; assay: MIC/MBC broth microdilution, S. schleiferi; assay type: cell-based, Staphylococcus schleiferi
How it was run: as §3

[14] = system: E. coli ATCC 25922; assay: MIC/MBC broth microdilution, E. coli; assay type: cell-based, Escherichia coli
How it was run: as §3

[15] = system: S. mutans c.i.; assay: MIC/MBC broth microdilution, S. mutans; assay type: cell-based, Streptococcus mutans
How it was run: as §3

[16] = system: S. pyogenes ATCC 19615; assay: MIC/MBC broth microdilution, S. pyogenes; assay type: cell-based, Streptococcus pyogenes; details: S. pyogenes
How it was run: as §3

[17] = in vivo; cited from earlier work
[18] = A-196 0.01–10 μg/mL, A-219 above 0.1 μg/mL, A-213 lower concentrations
[19] = up to 150 μg/mL, A-193 and A-179 after 48 h

CC(C)C[C@H](NC(=O)[C@H](CCCNC(=N)N)NC(=O)OCc1ccccc1)C(=O)N[C@H](C(=O)NCCc1ccccc1)C(C)C [Compound A-196] (HELM PEPTIDE1{[O=C(OCc1ccccc1)[*:2]].R.L.V.[c1ccc(CCN[*:1])cc1]}$$$$V2.0)
pro-proliferative effect above control [1, 18]: 5–20%
antiproliferative effect (decrease vs control) [1, 19]: up to 50%
concentration at which cytotoxic effect starts [2]: 150 µg/mL
concentration at which cytotoxic effect starts [3]: 150 µg/mL
MIC ([4]; H2O): > 512 µg/mL
MIC ([4]; water additive DMSO): > 512 µg/mL
MIC ([4]; water additive EtOH): > 512 µg/mL
present in human plasma [5]: 85–90%
MBC ([6]; H2O): 256 µg/mL (≈ 410 µM)
MBC ([6]; water additive DMSO): 256 µg/mL (≈ 410 µM)
MIC [7]: 32 µg/mL (≈ 51.3 µM)
pro-proliferative effect above control [8, 18]: 5–20%
antiproliferative effect (decrease vs control) [8, 19]: up to 50%
MIC ([9]; H2O): > 512 µg/mL
MIC ([9]; water additive DMSO): > 512 µg/mL
MIC ([9]; water additive EtOH): > 512 µg/mL
MIC ([10]; H2O): > 512 µg/mL
MIC ([10]; water additive DMSO): > 512 µg/mL
MBC ([10]; water additive EtOH): > 512 µg/mL
MIC ([10]; water additive EtOH): 512 µg/mL (≈ 821 µM)
MIC ([11]; H2O): > 512 µg/mL
MIC ([11]; water additive DMSO): > 512 µg/mL
MIC ([11]; water additive EtOH): > 512 µg/mL
MBC ([12]; water additive DMSO): 256 µg/mL (≈ 410 µM)
MBC ([12]; water additive EtOH): 256 µg/mL (≈ 410 µM)
MBC ([13]; H2O): 16 µg/mL (≈ 25.6 µM)
MIC ([13]; H2O): 16 µg/mL (≈ 25.6 µM)
MBC ([13]; water additive DMSO): 16 µg/mL (≈ 25.6 µM)
MIC ([13]; water additive DMSO): 16 µg/mL (≈ 25.6 µM)
MBC ([13]; water additive EtOH): 32 µg/mL (≈ 51.3 µM)
MIC ([13]; water additive EtOH): 16 µg/mL (≈ 25.6 µM)
MIC ([14]; H2O): > 512 µg/mL
MIC ([14]; water additive DMSO): > 512 µg/mL
MIC ([14]; water additive EtOH): > 512 µg/mL
MBC ([15]; H2O): 256 µg/mL (≈ 410 µM)
MIC ([15]; water additive DMSO): 32 µg/mL (≈ 51.3 µM)
MBC ([16]; water additive DMSO): 256 µg/mL (≈ 410 µM)
MBC ([16]; water additive EtOH): 256 µg/mL (≈ 410 µM)

CNC(C)C1CCC(N)C(OC2C(N)CC(N)C(OC3OCC(C)(O)C(NC)C3O)C2O)O1 (stereo not drawn) [gentamicin]
VD values [17]: −0.699 to −0.432 log L/kg
